Values of other authors as cited in patent US10709668B2, “Sprinkle formulations of acamprosate” (priority 2015, dated 2020).

Columns and labels:
[1] = humans
[2] = subjects with autism and fragile x syndrome (WO 2010093859)

## CC(=O)NCCCS(=O)(=O)O [acamprosate, 3-(Acetylamino)propylsulfonic acid]
[1]
  Oral bioavailability: about 11%
[2]
  Improvement in primary outcomes (CGI-I, CGI-S): marked improvements
